Values quoted from earlier work, collected in the PKSmart pharmacokinetics tables (Seal et al. 2025).

Columns and labels:
[1] = Lombardo et al. 2013, J Clin Pharmacol 53:178, doi 10.1177/0091270012440282; conditions: for Vd / clearance: in vivo, iv; for fraction unbound: plasma
[2] = Lombardo, Berellini, Obach 2018, Drug Metab Dispos 46:1466, doi 10.1124/dmd.118.082966; conditions: human; for MRT / Vd / clearance / half-life: in vivo, iv; for fraction unbound: plasma

Structure (SMILES): C[C@@H]1CCC[C@H](C)N1CCCC(O)(c1ccccc1)c1ccccn1 (stereo partly drawn)
- Vd ([1]; dog): 2.1 L/kg
- clearance ([1]; dog): 8.3 mL/min/kg
- fraction unbound ([1]; dog): 0.492
- Vd ([1]; monkey): 0.87 L/kg
- clearance ([1]; monkey): 4.92 mL/min/kg
- fraction unbound ([1]; monkey): 0.42
- Vd ([1]; rat): 2.6 L/kg
- clearance ([1]; rat): 62 mL/min/kg
- fraction unbound ([1]; rat): 0.49
- MRT [2]: 13 h
- Vd [2]: 1.4 L/kg
- clearance [2]: 1.8 mL/min/kg
- half-life [2]: 8.4 h

Structure (SMILES): CC(C)NCC(O)COc1ccc(COCCOC(C)C)cc1 (stereo not drawn)
- Vd ([1]; dog): 3.5 L/kg
- clearance ([1]; dog): 7.9 mL/min/kg
- Vd ([1]; monkey): 3 L/kg
- clearance ([1]; monkey): 12 mL/min/kg
- Vd ([1]; rat): 1.4 L/kg
- clearance ([1]; rat): 13 mL/min/kg
- fraction unbound ([1]; rat): 0.85
- Vd [2]: 2.4 L/kg
- clearance [2]: 3.7 mL/min/kg
- half-life [2]: 10 h

Structure (SMILES): NCc1ccccc1CC(=O)NC1C(=O)N2C(C(=O)O)=C(CSc3nnnn3CC(=O)O)CS[C@H]12 (stereo partly drawn)
- Vd ([1]; dog): 0.5 L/kg
- clearance ([1]; dog): 6.5 mL/min/kg
- Vd ([1]; rat): 0.5 L/kg
- clearance ([1]; rat): 5.4 mL/min/kg
- MRT [2]: 4.3 h
- Vd [2]: 0.17 L/kg
- clearance [2]: 0.66 mL/min/kg
- half-life [2]: 3 h
- fraction unbound [2]: 0.19

Structure (SMILES): COc1ccc2c3c1O[C@H]1C[C@@H](O)C=C[C@@]31CCN(C)C2
- Vd ([1]; dog): 2.78 L/kg
- clearance ([1]; dog): 12.3 mL/min/kg
- fraction unbound ([1]; dog): 0.981
- Vd ([1]; rat): 5.2 L/kg
- clearance ([1]; rat): 31.7 mL/min/kg
- fraction unbound ([1]; rat): 0.75
- MRT [2]: 6.8 h
- Vd [2]: 2.3 L/kg
- clearance [2]: 5.6 mL/min/kg
- half-life [2]: 5.3 h

Structure (SMILES): CC(C)(C)NC(=O)C1CN(Cc2cccnc2)CCN1C[C@@H](O)CC(Cc1ccccc1)C(=O)N[C@H]1c2ccccc2C[C@H]1O (stereo partly drawn)
- Vd ([1]; dog): 0.73 L/kg
- clearance ([1]; dog): 15 mL/min/kg
- Vd ([1]; monkey): 1.45 L/kg
- clearance ([1]; monkey): 35.7 mL/min/kg
- Vd ([1]; rat): 2.2 L/kg
- clearance ([1]; rat): 89 mL/min/kg
- MRT [2]: 0.76 h
- Vd [2]: 0.82 L/kg
- half-life [2]: 1 h

Structure (SMILES): CCCCCNC(=O)c1coc([C@H]2[C@@H](Cc3ccccc3CCC(=O)O)[C@@H]3CC[C@H]2O3)n1
- Vd ([1]; dog): 11 L/kg
- clearance ([1]; dog): 65 mL/min/kg
- Vd ([1]; monkey): 5.5 L/kg
- clearance ([1]; monkey): 19.1 mL/min/kg
- Vd ([1]; rat): 2.8 L/kg
- clearance ([1]; rat): 87.5 mL/min/kg
- MRT [2]: 11 h
- Vd [2]: 4.4 L/kg
- clearance [2]: 6.4 mL/min/kg
- half-life [2]: 22 h

Structure (SMILES): CCCC[C@@H]1CC(=O)[C@]2(O)O[C@@H]3[C@@H](NC)[C@@H](O)[C@@H](NC)[C@H](O)[C@H]3O[C@@H]2O1
- Vd ([1]; dog): 49.8 L/kg
- clearance ([1]; dog): 2.69 mL/min/kg
- fraction unbound ([1]; dog): 0.533
- Vd ([1]; rat): 4.46 L/kg
- clearance ([1]; rat): 4.28 mL/min/kg
- fraction unbound ([1]; rat): 0.62
- MRT [2]: 6.9 h
- Vd [2]: 0.7 L/kg
- clearance [2]: 1.7 mL/min/kg
- half-life [2]: 11 h
- fraction unbound [2]: 0.65

Structure (SMILES): Cc1ccc(-c2nc3ccc(C)cn3c2CC(=O)N(C)C)cc1
- Vd ([1]; rat): 1.05 L/kg
- clearance ([1]; rat): 48.7 mL/min/kg
- fraction unbound ([1]; rat): 0.17
- MRT [2]: 2.1 h
- Vd [2]: 0.54 L/kg
- clearance [2]: 4.3 mL/min/kg
- half-life [2]: 1.7 h

Structure (SMILES): CC(C)(C)NCC(O)c1cc(O)cc(O)c1 (stereo not drawn)
- Vd ([1]; rat): 3.3 L/kg
- clearance ([1]; rat): 60 mL/min/kg
- MRT [2]: 7.4 h
- Vd [2]: 1.5 L/kg
- clearance [2]: 3.4 mL/min/kg
- half-life [2]: 15 h

Structure (SMILES): O=C(O)CC(NC(=O)CP(=O)(O)O)C(=O)O (stereo not drawn)
- Vd ([1]; dog): 0.29 L/kg
- clearance ([1]; dog): 4.1 mL/min/kg
- Vd ([1]; monkey): 0.2 L/kg
- clearance ([1]; monkey): 2.3 mL/min/kg
- Vd ([1]; rat): 1.1 L/kg
- clearance ([1]; rat): 17.4 mL/min/kg
- MRT [2]: 4.51 h
- Vd [2]: 0.33 L/kg
- clearance [2]: 1.22 mL/min/kg
- half-life [2]: 4.78 h

Structure (SMILES): COc1ccc(CCNCC(O)COc2cccc(C)c2)cc1OC (stereo not drawn)
- Vd ([1]; dog): 4 L/kg
- clearance ([1]; dog): 45 mL/min/kg
- fraction unbound ([1]; dog): 0.04
- fraction unbound ([1]; rat): 0.06
- MRT [2]: 2 h
- Vd [2]: 0.67 L/kg
- clearance [2]: 5.5 mL/min/kg
- half-life [2]: 1.9 h
- fraction unbound [2]: 0.015

Structure (SMILES): C#CCCCC(=O)c1cc(C(C)(C)C)c(O)c(C(C)(C)C)c1
- Vd ([1]; dog): 24.8 L/kg
- clearance ([1]; dog): 30.9 mL/min/kg
- Vd ([1]; monkey): 10.4 L/kg
- clearance ([1]; monkey): 14.9 mL/min/kg
- Vd ([1]; rat): 7.9 L/kg
- clearance ([1]; rat): 41.4 mL/min/kg
- MRT [2]: 22.3 h
- Vd [2]: 12 L/kg
- clearance [2]: 8.9 mL/min/kg
- half-life [2]: 50.7 h

Structure (SMILES): COc1c(N2CCNC(C)C2)c(F)cc2c(=O)c(C(=O)O)cn(C3CC3)c12 (stereo not drawn)
- Vd ([1]; dog): 2.11 L/kg
- clearance ([1]; dog): 4.2 mL/min/kg
- fraction unbound ([1]; dog): 0.84
- Vd ([1]; monkey): 1.85 L/kg
- clearance ([1]; monkey): 10.2 mL/min/kg
- fraction unbound ([1]; monkey): 0.83
- Vd ([1]; rat): 2.5 L/kg
- clearance ([1]; rat): 19.3 mL/min/kg
- fraction unbound ([1]; rat): 0.75
- MRT [2]: 11 h
- Vd [2]: 1.7 L/kg
- clearance [2]: 2.8 mL/min/kg
- half-life [2]: 10 h

Structure (SMILES): COc1cc(Cc2cnc(N)nc2N)cc(OC)c1OC
- Vd ([1]; dog): 1.74 L/kg
- fraction unbound ([1]; dog): 0.708
- Vd ([1]; rat): 2.1 L/kg
- fraction unbound ([1]; rat): 0.51
- MRT [2]: 12 h
- Vd [2]: 1.5 L/kg
- half-life [2]: 9.6 h

Structure (SMILES): CN1CCC[C@H]1c1cccnc1
- Vd ([1]; dog): 3.3 L/kg
- clearance ([1]; dog): 42 mL/min/kg
- Vd ([1]; rat): 2.77 L/kg
- clearance ([1]; rat): 46.3 mL/min/kg
- MRT [2]: 2.4 h
- Vd [2]: 2.6 L/kg
- clearance [2]: 18 mL/min/kg
- half-life [2]: 2 h

Structure (SMILES): COc1ccc(C(CN(C)C)C2(O)CCCCC2)cc1 (stereo not drawn)
- Vd ([1]; dog): 3.3 L/kg
- clearance ([1]; dog): 13.5 mL/min/kg
- fraction unbound ([1]; dog): 0.593
- Vd ([1]; monkey): 3.5 L/kg
- clearance ([1]; monkey): 41 mL/min/kg
- fraction unbound ([1]; monkey): 0.708
- Vd ([1]; rat): 6.6 L/kg
- clearance ([1]; rat): 64.5 mL/min/kg
- MRT [2]: 5.2 h
- Vd [2]: 4.4 L/kg
- clearance [2]: 14 mL/min/kg
- half-life [2]: 5 h

Structure (SMILES): C[C@@H](O)C1C(=O)N2C(C(=O)O)=C(SCCOC(N)=O)S[C@H]12 (stereo partly drawn)
- Vd ([1]; dog): 0.24 L/kg
- Vd ([1]; monkey): 0.21 L/kg
- Vd ([1]; rat): 0.14 L/kg
- MRT [2]: 0.67 h
- Vd [2]: 0.3 L/kg
- half-life [2]: 0.8 h
- fraction unbound [2]: 0.35

Structure (SMILES): CNC(=O)c1cccc2c(Nc3ccc(NS(C)(=O)=O)cc3OC)c3cccc(C)c3nc12
- Vd ([1]; dog): 1 L/kg
- clearance ([1]; dog): 3.7 mL/min/kg
- fraction unbound ([1]; dog): 0.0038
- Vd ([1]; rat): 2 L/kg
- clearance ([1]; rat): 66 mL/min/kg
- fraction unbound ([1]; rat): 0.011
- MRT [2]: 1.9 h
- Vd [2]: 0.3 L/kg
- clearance [2]: 2.6 mL/min/kg
- half-life [2]: 2.4 h
- fraction unbound [2]: 0.0011

Structure (SMILES): NCC1(CC(=O)O)CCCCC1
- Vd ([1]; dog): 0.16 L/kg
- clearance ([1]; dog): 2.3 mL/min/kg
- Vd ([1]; monkey): 0.65 L/kg
- clearance ([1]; monkey): 2.3 mL/min/kg
- fraction unbound ([1]; monkey): 0.02
- Vd ([1]; rat): 1.1 L/kg
- clearance ([1]; rat): 9.1 mL/min/kg
- fraction unbound ([1]; rat): 0.02
- MRT [2]: 7 h
- Vd [2]: 0.71 L/kg
- clearance [2]: 1.7 mL/min/kg
- half-life [2]: 5.3 h

Structure (SMILES): CC(C)NCC(O)COc1cccc2ccccc12 (stereo not drawn)
- Vd ([1]; dog): 6.79 L/kg
- clearance ([1]; dog): 51.8 mL/min/kg
- fraction unbound ([1]; dog): 0.04
- Vd ([1]; monkey): 2.28 L/kg
- clearance ([1]; monkey): 20.8 mL/min/kg
- fraction unbound ([1]; monkey): 0.03
- Vd ([1]; rat): 4.58 L/kg
- clearance ([1]; rat): 94.3 mL/min/kg
- fraction unbound ([1]; rat): 0.1
- MRT [2]: 4.3 h
- Vd [2]: 3.1 L/kg
- clearance [2]: 12 mL/min/kg
- half-life [2]: 3.4 h

Structure (SMILES): CC(=O)Nc1nnc(S(N)(=O)=O)s1
- Vd ([1]; rat): 0.21 L/kg
- clearance ([1]; rat): 68 mL/min/kg
- fraction unbound ([1]; rat): 0.2
- MRT [2]: 9.5 h
- Vd [2]: 0.37 L/kg
- clearance [2]: 0.65 mL/min/kg
- fraction unbound [2]: 0.04

Structure (SMILES): COc1ccc2c3c1O[C@H]1[C@@H](O)C=C[C@H]4[C@@H](C2)N(C)CC[C@@]341
- fraction unbound ([1]; rat): 0.92
- MRT [2]: 3.9 h
- Vd [2]: 3.5 L/kg
- clearance [2]: 15 mL/min/kg
- half-life [2]: 4 h
- fraction unbound [2]: 0.7

Structure (SMILES): CC(C)NCC(O)COc1cccc2[nH]ccc12 (stereo not drawn)
- Vd ([1]; dog): 17 L/kg
- Vd ([1]; rat): 1.36 L/kg
- MRT [2]: 2.6 h
- Vd [2]: 1.2 L/kg
- half-life [2]: 2.2 h

Structure (SMILES): Cc1cccc(C)c1NC(=O)C(C)N (stereo not drawn)
- Vd ([1]; rat): 5 L/kg
- clearance ([1]; rat): 37.8 mL/min/kg
- MRT [2]: 14 h
- Vd [2]: 1.8 L/kg
- clearance [2]: 2.2 mL/min/kg
- half-life [2]: 12 h

Structure (SMILES): CCCCS(=O)(=O)NC(Cc1ccc(OCCCCC2CCNCC2)cc1)C(=O)O (stereo not drawn)
- Vd ([1]; dog): 0.52 L/kg
- clearance ([1]; dog): 36.4 mL/min/kg
- fraction unbound ([1]; dog): 0.55
- Vd ([1]; rat): 1.42 L/kg
- fraction unbound ([1]; rat): 0.15
- MRT [2]: 1.8 h
- Vd [2]: 0.34 L/kg
- clearance [2]: 3 mL/min/kg
- half-life [2]: 1.6 h
- fraction unbound [2]: 0.36

Structure (SMILES): CC(=O)CCCCn1c(=O)c2c(ncn2C)n(C)c1=O
- Vd ([1]; dog): 1.01 L/kg
- clearance ([1]; dog): 37 mL/min/kg
- fraction unbound ([1]; dog): 0.425
- Vd ([1]; rat): 0.1 L/kg
- clearance ([1]; rat): 7.28 mL/min/kg
- fraction unbound ([1]; rat): 0.76
- MRT [2]: 0.77 h
- Vd [2]: 1.8 L/kg
- clearance [2]: 39 mL/min/kg
- half-life [2]: 1.2 h
- fraction unbound [2]: 0.51

Structure (SMILES): c1ccc2c(c1)OCC(C1=NCCN1)O2 (stereo not drawn)
- Vd ([1]; rat): 3.1 L/kg
- clearance ([1]; rat): 71.2 mL/min/kg
- MRT [2]: 5.5 h
- Vd [2]: 3.3 L/kg
- clearance [2]: 10 mL/min/kg
- half-life [2]: 4.2 h
